Measurements taken from PubChem BioAssay (NCI).
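At the GI50, growth is halved. TGI is the concentration that stops growth completely.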

What was measured:
Assay in all cases: NCI-60 cell line screen, 384-well format
[1] = system: SF-295 CNS
[2] = system: A498 renal
[3] = system: RPMI-8226 leukemia
[4] = system: OVCAR-3 ovarian
[5] = system: MOLT-4 leukemia
[6] = system: NCI-H226 lung
[7] = system: KM12 colon
[8] = system: U251 glioblastoma
[9] = system: 786-0 renal
[10] = system: COLO 205 colon
[11] = system: SW-620 colon
[12] = system: OVCAR-4 ovarian
[13] = system: ACHN renal
[14] = system: UACC-62 melanoma
[15] = system: SK-MEL-2 melanoma
[16] = system: PC-3 prostate
[17] = system: HT29 colon
[18] = system: UO-31 renal
[19] = system: HCC-2998 colon
[20] = system: UACC-257 melanoma
[21] = system: NCI-H522 lung
[22] = system: RXF 393 renal
[23] = system: IGROV1 ovarian
[24] = system: K-562 leukemia
[25] = system: SK-MEL-28 melanoma
[26] = system: SF-268 CNS
[27] = system: NCI/ADR-RES ovarian
[28] = system: HOP-92 NSCLC
[29] = system: SK-OV-3 ovarian

`Cc1c(-c2ccc(N3CCc4cccc(C(=O)Nc5nc6ccccc6s5)c4C3)nc2C(=O)O)cnn1CC12CC3CC(CC(C3)C1)C2` showed a GI50 [1] of 3.63 µM, a TGI [1] of 15.2 µM and a GI50 [2] of 0.0911 µM. The TGI [2] was 2.39 µM, the GI50 [3] was less than 0.01 µM and the TGI [3] was less than 0.01 µM. The GI50 [4] was 4.03 µM, the TGI [4] was 18.1 µM and the GI50 [5] was less than 0.01 µM. The TGI [5] was less than 0.01 µM, the GI50 [6] was 1 µM and the TGI [6] was 11.5 µM. It also gave a GI50 [7] of 11.2 µM, a TGI [7] of 23.2 µM and a GI50 [8] of 11.6 µM. For the same compound, the TGI [8] was 23.9 µM, the GI50 [9] was 3.65 µM and the TGI [9] was 15.5 µM. It also gave a GI50 [10] of 0.272 µM, a TGI [10] of 1.73 µM and a GI50 [11] of 12.4 µM. The TGI [11] was 24.8 µM, the GI50 [12] was 0.0115 µM and the TGI [12] was 13.2 µM. The GI50 [13] was 11.6 µM, the TGI [13] was 23.8 µM and the GI50 [14] was 13.6 µM. For the same compound, the TGI [14] was 26.4 µM, the GI50 [15] was less than 0.01 µM and the TGI [15] was 2.67 µM. It also gave a GI50 [16] of 4.89 µM, a TGI [16] of 17.4 µM and a GI50 [17] of 12.9 µM. It also gave a TGI [17] of 25.6 µM, a GI50 [18] of 1.14 µM and a TGI [18] of 12 µM. It also gave a GI50 [19] of less than 0.01 µM, a TGI [19] of 0.0661 µM and a GI50 [20] of 9.83 µM. It also gave a TGI [20] of 21.5 µM, a GI50 [21] of 3.66 µM and a TGI [21] of 17.6 µM. It also gave a GI50 [22] of less than 0.01 µM, a TGI [22] of 0.0108 µM and a GI50 [23] of 1.67 µM. The TGI [23] was 4 µM, the GI50 [24] was 10.8 µM and the TGI [24] was 22.8 µM. For the same compound, the GI50 [25] was 4.35 µM, the TGI [25] was 16.3 µM and the GI50 [26] was 15.2 µM. The TGI [26] was 28.5 µM, the GI50 [27] was 13.5 µM and the TGI [27] was 26.4 µM. The GI50 [28] was less than 0.01 µM, the TGI [28] was 0.0174 µM and the GI50 [29] was 6.03 µM.
